{
  "source": "ChEMBL document CHEMBL1759842",
  "about": "“Discovery of non-glucoside SGLT2 inhibitors” (Bioorg Med Chem Lett, 2011)",
  "key": {"[1]": {"biological_target": "T1, Sodium/glucose cotransporter 2 (Homo sapiens, UniProt P31639)", "T1 sequence (P31639 whole entry)": "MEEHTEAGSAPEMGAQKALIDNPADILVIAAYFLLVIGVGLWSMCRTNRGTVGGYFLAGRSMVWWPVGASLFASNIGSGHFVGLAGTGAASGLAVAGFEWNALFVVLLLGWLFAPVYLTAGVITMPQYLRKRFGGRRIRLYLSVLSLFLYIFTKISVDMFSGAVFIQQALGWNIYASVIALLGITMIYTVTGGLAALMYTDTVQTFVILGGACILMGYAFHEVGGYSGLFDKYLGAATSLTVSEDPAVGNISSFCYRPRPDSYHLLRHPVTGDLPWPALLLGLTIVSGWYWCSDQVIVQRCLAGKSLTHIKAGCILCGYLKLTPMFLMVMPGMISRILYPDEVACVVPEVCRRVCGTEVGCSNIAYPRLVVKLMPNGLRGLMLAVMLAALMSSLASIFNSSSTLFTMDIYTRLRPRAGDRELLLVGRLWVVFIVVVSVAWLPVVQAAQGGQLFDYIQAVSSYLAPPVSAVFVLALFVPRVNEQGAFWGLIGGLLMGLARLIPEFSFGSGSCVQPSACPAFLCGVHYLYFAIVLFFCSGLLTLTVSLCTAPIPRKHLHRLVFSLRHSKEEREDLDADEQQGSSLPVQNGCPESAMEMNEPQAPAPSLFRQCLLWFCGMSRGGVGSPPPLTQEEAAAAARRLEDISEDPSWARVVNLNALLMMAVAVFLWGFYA", "experiment": "Inhibition of human SGLT2 expressed in CHO cells assessed as inhibition of [14C]-alpha-methyl-D-glucopyranoside transport after 60 mins by scintillation counting", "assay_type": "cell-based"}, "[2]": {"biological_target": "T2, Sodium/glucose cotransporter 2 (Rattus norvegicus, UniProt P53792)", "T2 sequence (P53792 whole entry)": "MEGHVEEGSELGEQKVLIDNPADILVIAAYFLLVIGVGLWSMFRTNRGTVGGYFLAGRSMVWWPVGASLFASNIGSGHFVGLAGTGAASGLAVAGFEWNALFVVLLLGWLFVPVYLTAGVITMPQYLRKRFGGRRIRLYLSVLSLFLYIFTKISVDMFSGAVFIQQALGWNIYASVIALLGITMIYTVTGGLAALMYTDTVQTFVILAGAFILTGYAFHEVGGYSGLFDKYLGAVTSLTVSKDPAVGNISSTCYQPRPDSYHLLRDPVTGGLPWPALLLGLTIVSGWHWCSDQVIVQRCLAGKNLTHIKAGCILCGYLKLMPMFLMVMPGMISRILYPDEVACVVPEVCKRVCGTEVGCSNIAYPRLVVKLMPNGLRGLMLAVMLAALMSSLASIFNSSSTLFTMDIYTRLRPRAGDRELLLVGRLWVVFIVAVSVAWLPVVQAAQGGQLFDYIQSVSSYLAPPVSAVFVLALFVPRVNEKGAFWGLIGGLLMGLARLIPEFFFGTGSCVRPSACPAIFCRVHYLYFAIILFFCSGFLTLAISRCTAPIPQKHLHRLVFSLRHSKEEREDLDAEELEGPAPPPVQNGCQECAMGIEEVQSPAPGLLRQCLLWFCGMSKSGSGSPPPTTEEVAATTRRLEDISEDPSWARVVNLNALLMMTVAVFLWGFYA", "experiment": "Inhibition of rat SGLT2 expressed in CHO cells assessed as inhibition of [14C]-alpha-methyl-D-glucopyranoside transport after 60 mins by scintillation counting", "assay_type": "cell-based"}},
  "data": [
    {"smiles": "Cn1c(CN2C(=O)CSc3ccc(C(F)(F)F)cc32)nnc1SCc1ccc(Cl)cc1", "values": [
      {"measurement": "IC50", "setting": "[1]", "value": 1400, "unit": "nM"},
      {"measurement": "IC50", "setting": "[2]", "value": 400, "unit": "nM"}
    ]}
  ]
}
